Assays:
[1] = target: T1, HO (Rattus norvegicus, UniProt P06762); assay: Blocking of HO activity by ZnPPIX, carboxyhemoglobin in peripheral blood of recipients; type: in vivo; conditions: 2 mg/kg/day intraperitoneally to recipients
T1 construct: expressed in transfected cells; host or cells: LEW rat heart allografts transduced with rAAV/HO-1, in F344 rat recipients (in vivo)
T1 sequence (P06762 1-289): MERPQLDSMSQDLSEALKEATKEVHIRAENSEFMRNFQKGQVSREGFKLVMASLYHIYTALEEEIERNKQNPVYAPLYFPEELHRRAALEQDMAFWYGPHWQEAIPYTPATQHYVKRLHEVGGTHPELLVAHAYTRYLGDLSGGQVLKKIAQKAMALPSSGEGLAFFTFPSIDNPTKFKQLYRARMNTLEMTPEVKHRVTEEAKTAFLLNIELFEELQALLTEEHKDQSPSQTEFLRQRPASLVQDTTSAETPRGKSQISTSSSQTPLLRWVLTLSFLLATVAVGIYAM
Protocol: Heme oxygenase-1 inhibitor, zinc protoprophyrin IX (ZnPPIX, Calbiochem-Novabiochem, Germany) was administered intraperitoneally according to the experimental protocols.
The HO enzyme activity was measured by two of its end products: carbon monoxide and biliverdin/bilirubin. The amount of carbon monoxide was measured by spectrophotometry providing a determination of carboxyhemoglobin in the peripheral blood of the animals. The level of intragraft bilirubin was measured by the method as described. In brief, the frozen samples of grafts were homogenized in ice-cold sucrose and Tri-HCl buffer. The microsomal pellet was obtained after centrifugation, and re-suspended in MgCl2-potassium phosphate buffer. Sample protein was then incubated with the reaction mixture containing rat liver cytosol, hemin, glucose-6-phosphate, glucose-6-phosphate dehydrogenase and NADPH (Sigma-Aldrich, St. Louis) for 60 minutes at 37° C. The generated bilirubin was measured by reacting with diazotized surfanilic acid to yield azobilirubin using spectrophotometry. The level of intragraft bilirubin was deduced by the ratio of its contents in the sample/naive heart. […]

[2] = system: LEW heart grafts to F344 recipients; assay: Allogeneic heart transplant graft survival; type: in vivo, rat
Protocol: LEW (RT1′) and F344 (RT1^lvl) rats were purchased from the Institute of Laboratory Animals, Medical School Hannover, Germany, and maintained in the Laboratory Animal Unit, The University of Hong Kong. All experimental procedures were performed according to institutional guidelines and approved by the Committee on the Use of Live Animal in Teaching and Research. Allogeneic heart transplants were performed using LEW and F344 rats weighing from 200-250 grams as donors or recipients respectively. For the syngeneic graft, LEW rats were used as recipients. In brief, after in situ perfusion of donor heart grafts with the HTK solution (Koehler Chemie, Germany), 1×10^12 vector genomes of rAAV/GFP or rAAV/HO-1 were administered into the heart graft via the coronary artery. Grafts were then preserved in cold HTK solution for 6 hours before the transplant. The implantation procedure was as described in the literature. Graft function was monitored by daily palpation, and the allograft rejection was defined by full cessation of ventricular contraction, and confirmed by pathological examination.
Heme oxygenase-1 inhibitor, zinc protoprophyrin IX (ZnPPIX, Calbiochem-Novabiochem, Germany) was administered intraperitoneally according to the experimental protocols. […]

Question: Which “HO activity, level of carboxyhemoglobin” value [1] does the source give for `C=CC1=C(C)c2cc3[n-]c(cc4[n-]c(cc5nc(cc1n2)C(C)=C5C=C)c(C)c4CCC(=O)O)c(CCC(=O)O)c3C.[Zn+2]` [ZnPPIX, zinc protoporphyrin IX] here?
Answer: significantly inhibited

Question: And the “graft survival rate in rAAV/HO-1+CsA group” value ([2]; ZnPPIX administered from day 31 to 100)?
Answer: remained unchanged

Question: And the “graft survival in rAAV/HO-1+CsA group” value ([2]; combined administration of ZnPPIX from day 0 to 30)?
Answer: shortened
